In ChEMBL document CHEMBL1146407, “Taxuspinananes A and B, new taxoids from Taxus cuspidata var. nana” (J Nat Prod, 1997):
Converted amounts (≈) assume the structure as drawn.

Each molecule was assayed on P388 (assay: Cytotoxicity against mouse P388 cells after 48 hrs by MTT assay). Details: P388, 48 h.
Type: functional, cell-based

Compared with `C=C1[C@@H](O)C[C@H](OC(C)=O)[C@@]2(C)[C@@H](OC(C)=O)[C@H](OC(=O)c3ccccc3)C3=C(C)C(=O)C[C@@]3(C(C)(C)O)[C@@H](OC(C)=O)[C@H]12` [13-OXO-TAXCHININ A], `CCC(C)CCC(=O)N[C@@H](c1ccccc1)[C@@H](O)C(=O)O[C@H]1C[C@@]2(O)[C@@H](OC(=O)c3ccccc3)[C@@H]3[C@]4(OC(C)=O)CO[C@@H]4C[C@H](O)[C@@]3(C)C(=O)[C@H](OC(C)=O)C(=C1C)C2(C)C` (stereo partly drawn) [TAXUSPINANANE A] is 1000-fold lower in IC50: 10 µg/mL (≈ 16.3 µM) for the first, 0.01 µg/mL (≈ 0.0116 µM) for the second.

`CC(=O)O[C@H]1C(=O)[C@@]2(C)[C@H]([C@H](OC(=O)c3ccccc3)[C@]3(O)C[C@H](OC(=O)[C@H](O)[C@@H](NC(=O)c4ccccc4)c4ccccc4)C(C)=C1C3(C)C)[C@]1(OC(C)=O)CO[C@@H]1C[C@@H]2O` [PACLITAXEL] gave an IC50 of 0.03 µg/mL (≈ 0.0351 µM).
